Key:
[1] = biological target: Mer (phospho-Mer, MERTK-transfected 293A cells) (Homo sapiens (Human), UniProt Q12866); assay: Mer autophosphorylation ELISA in transient transfected 293A cells (Example H); assay type: cell-based; details: cellular activity; Mer autophosphorylation ELISA in transient transfected 293A cells
In short: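 IC50 from phospho-Mer ELISA of MERTK-transfected 293A cell lysates after 1 h treatment with serially diluted compound in serum-free medium.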

[2] = biological target: Met (phospho-Met, HGF-stimulated PC-3 prostate cancer cells) (Homo sapiens (Human), UniProt P08581); assay: Met autophosphorylation ELISA in PC-3 cells (Example F); assay type: cell-based; details: cellular activity; Met autophosphorylation ELISA in PC-3 cells; read-out: c-Met IC50
In short: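 Compounds were tested on HGF-stimulated PC-3 cells. After 24 h culture and 3 h serum starvation, cells got compound for 1 h and 100 ng/mL HGF for 10 min, and Met tyrosine phosphorylation was measured by ELISA.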

[3] = biological target: Human MER (residues 528-999) (Homo sapiens (Human), UniProt Q12866); assay: Human Mer kinase assay, HTRF KinEase (Example C-2); assay type: biochemical; details: protocol of Example C-2 (other compounds)
In short: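 Recombinant MER 528-999 (1 ng/well) in buffer with 5 mM MgCl2 and 1 mM DTT was reacted with biotinylated peptide and ATP at Km (40 μM) for 60 min at room temperature. EDTA stop with SA-XL665 and Eu3+ TK antibody, then 665/620 nm HTRF read; IC50 from 4-parameter fit.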

[4] = biological target: Human KDR (residues 790-1356) (Homo sapiens (Human), UniProt P35968); assay: Human KDR kinase assay, HTRF KinEase (Example B-2); assay type: biochemical; details: protocol of Example B-2 (other compounds)
In short: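 Ten compound concentrations (3% DMSO final) were pre-plated, then KDR (790-1356) with biotinylated peptide in Mg/Mn/DTT buffer was added; ATP at Km (4.0 μM) started a 40 min room-temperature reaction. Detection used Eu-TK antibody and SA-XL665 in EDTA buffer; activity normalized to DMSO and reference inhibitor, IC50 by logistic fit.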

Human MER (residues 528-999), sequence (Q12866 528-999): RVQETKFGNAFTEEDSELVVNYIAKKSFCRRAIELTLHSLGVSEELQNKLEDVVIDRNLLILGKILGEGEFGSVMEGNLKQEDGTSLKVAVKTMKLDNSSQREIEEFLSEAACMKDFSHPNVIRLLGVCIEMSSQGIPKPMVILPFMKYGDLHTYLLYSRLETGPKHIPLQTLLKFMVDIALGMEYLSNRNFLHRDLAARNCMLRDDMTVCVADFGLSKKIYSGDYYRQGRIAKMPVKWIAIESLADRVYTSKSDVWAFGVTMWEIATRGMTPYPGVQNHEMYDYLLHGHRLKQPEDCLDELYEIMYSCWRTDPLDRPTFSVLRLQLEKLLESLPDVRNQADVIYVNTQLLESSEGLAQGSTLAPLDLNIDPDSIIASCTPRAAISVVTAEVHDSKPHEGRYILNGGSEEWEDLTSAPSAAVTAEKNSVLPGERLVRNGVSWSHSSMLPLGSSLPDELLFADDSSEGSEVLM
Human KDR (residues 790-1356), sequence (P35968 790-1356): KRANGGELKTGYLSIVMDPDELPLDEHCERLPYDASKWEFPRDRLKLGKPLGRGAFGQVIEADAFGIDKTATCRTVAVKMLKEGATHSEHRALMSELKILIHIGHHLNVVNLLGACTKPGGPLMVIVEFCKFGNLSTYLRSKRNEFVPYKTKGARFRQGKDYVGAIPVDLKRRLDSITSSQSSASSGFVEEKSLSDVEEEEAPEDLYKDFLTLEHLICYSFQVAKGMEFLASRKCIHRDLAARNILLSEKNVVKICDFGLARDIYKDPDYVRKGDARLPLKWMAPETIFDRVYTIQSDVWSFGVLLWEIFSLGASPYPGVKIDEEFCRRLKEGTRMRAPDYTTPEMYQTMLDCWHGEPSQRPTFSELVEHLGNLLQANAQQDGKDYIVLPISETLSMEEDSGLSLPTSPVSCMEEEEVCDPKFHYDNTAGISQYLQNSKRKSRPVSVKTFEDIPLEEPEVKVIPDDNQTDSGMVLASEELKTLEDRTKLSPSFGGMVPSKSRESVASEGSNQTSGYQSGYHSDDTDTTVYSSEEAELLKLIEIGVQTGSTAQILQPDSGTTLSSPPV
Mer (phospho-Mer, MERTK-transfected 293A cells), sequence (Q12866 21-999): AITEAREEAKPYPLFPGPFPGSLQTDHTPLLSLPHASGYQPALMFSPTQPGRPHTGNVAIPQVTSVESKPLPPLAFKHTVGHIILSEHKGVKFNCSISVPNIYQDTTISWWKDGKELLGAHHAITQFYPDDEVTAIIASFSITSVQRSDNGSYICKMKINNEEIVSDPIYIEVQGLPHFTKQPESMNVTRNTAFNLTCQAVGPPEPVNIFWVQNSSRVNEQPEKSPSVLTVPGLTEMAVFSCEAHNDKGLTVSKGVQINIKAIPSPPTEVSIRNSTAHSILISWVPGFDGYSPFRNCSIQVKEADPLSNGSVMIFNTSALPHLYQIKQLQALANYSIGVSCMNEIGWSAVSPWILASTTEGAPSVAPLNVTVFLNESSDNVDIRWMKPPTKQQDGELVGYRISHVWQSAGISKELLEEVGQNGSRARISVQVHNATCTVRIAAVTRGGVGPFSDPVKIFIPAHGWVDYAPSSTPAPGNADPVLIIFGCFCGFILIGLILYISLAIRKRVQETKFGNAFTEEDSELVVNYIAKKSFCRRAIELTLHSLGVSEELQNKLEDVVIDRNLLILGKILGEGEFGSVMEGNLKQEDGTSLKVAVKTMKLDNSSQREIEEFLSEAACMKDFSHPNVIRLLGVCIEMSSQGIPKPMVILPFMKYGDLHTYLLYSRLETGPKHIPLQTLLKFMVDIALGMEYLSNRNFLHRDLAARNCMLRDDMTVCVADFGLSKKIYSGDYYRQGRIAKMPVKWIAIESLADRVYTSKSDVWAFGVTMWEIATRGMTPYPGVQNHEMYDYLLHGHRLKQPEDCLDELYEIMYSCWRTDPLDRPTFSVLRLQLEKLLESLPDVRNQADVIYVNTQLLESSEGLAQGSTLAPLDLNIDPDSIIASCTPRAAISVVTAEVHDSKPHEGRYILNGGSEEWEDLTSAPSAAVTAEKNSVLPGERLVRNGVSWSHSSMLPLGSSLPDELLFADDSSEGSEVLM
Met (phospho-Met, HGF-stimulated PC-3 prostate cancer cells), sequence (P08581 25-1390): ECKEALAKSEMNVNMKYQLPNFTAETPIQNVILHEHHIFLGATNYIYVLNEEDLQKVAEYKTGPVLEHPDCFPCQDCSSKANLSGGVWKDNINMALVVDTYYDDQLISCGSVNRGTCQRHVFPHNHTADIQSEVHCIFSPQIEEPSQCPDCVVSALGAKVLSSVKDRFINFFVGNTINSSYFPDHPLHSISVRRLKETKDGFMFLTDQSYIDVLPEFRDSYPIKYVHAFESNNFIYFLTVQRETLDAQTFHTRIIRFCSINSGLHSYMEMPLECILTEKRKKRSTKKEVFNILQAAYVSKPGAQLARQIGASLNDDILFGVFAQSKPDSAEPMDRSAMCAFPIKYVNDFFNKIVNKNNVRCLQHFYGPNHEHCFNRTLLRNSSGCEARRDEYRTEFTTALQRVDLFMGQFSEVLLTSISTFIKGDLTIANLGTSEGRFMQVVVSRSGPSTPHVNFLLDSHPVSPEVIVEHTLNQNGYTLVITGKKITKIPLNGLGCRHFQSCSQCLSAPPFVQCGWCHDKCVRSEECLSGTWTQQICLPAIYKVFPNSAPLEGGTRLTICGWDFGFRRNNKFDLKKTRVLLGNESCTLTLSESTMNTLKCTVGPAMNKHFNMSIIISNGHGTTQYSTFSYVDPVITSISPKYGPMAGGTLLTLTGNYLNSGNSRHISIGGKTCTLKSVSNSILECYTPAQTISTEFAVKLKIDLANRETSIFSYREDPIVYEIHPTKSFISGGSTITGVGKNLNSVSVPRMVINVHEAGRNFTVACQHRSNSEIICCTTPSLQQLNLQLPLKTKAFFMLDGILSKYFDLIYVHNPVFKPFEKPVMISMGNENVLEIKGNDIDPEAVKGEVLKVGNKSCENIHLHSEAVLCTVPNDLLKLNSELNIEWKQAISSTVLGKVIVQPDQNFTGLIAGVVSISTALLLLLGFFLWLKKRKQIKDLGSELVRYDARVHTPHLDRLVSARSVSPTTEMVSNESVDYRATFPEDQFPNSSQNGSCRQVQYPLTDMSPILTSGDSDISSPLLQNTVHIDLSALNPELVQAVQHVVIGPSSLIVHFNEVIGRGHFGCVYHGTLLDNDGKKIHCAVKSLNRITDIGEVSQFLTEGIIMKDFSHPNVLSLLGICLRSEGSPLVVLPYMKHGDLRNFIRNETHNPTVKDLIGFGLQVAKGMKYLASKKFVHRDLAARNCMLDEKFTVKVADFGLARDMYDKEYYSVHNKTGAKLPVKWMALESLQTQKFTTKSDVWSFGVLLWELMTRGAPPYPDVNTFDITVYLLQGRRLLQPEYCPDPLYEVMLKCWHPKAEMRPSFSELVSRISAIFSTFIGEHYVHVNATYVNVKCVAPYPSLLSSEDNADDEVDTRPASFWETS

| SMILES | IC50 [1] [nM] | IC50 [2] [nM] | IC50 [3] [nM] | IC50 [4] [nM] |
| --- | --- | --- | --- | --- |
| COc1ccc2c(Oc3ccc(NC(=O)c4cn(C(C)C)c(C)c(-c5ccc(F)cc5)c4=O)cc3F)ccnc2c1 [Compound 106, N-[3-Fluoro-4-(7-methoxyquinolin-4-yl)oxyphenyl]-5-(4-fluorophenyl)-6-methyl-4-oxo-1-propan-2-ylpyridine-3-carboxamide] | < 100 | < 100 | < 100 | > 300 |
| COc1cc2nccc(Oc3ccc(NC(=O)c4cnc(C)c(-c5ccc(F)cc5)c4O)cc3F)c2cc1OC [Compound 109, N-[4-(6,7-Dimethoxyquinolin-4-yl)oxy-3-fluorophenyl]-5-(4-fluorophenyl)-4-hydroxy-6-methylpyridine-3-carboxamide] | < 100 | < 100 | < 100 | < 100 |
| CCn1cc(C(=O)Nc2ccc(Oc3ccnc4cc(OC)c(OC)nc34)c(F)c2)c(=O)c(-c2ccc(F)cc2)c1 [Compound 116, N-[4-[(6,7-Dimethoxy-1,5-naphthyridin-4-yl)oxy]-3-fluorophenyl]-1-ethyl-5-(4-fluorophenyl)-4-oxopyridine-3-carboxamide] | < 100 | < 100 | < 100 | < 100 |
| COc1cc2nccc(Oc3ccc(NC(=O)c4c(C)ncn(-c5ccc(F)cc5)c4=O)cc3F)c2nc1OC [Compound 98, N-[4-[(6,7-Dimethoxy-1,5-naphthyridin-4-yl)oxy]-3-fluorophenyl]-1-(4-fluorophenyl)-4-methyl-6-oxopyrimidine-5-carboxamide] | < 100 | < 100 | < 100 | < 100 |
| COc1cnc2c(Oc3ccc(NC(=O)c4cn(C)c(C)c(-c5ccc(F)cc5)c4=O)cc3)ccnc2c1 [Compound 111, 5-(4-Fluorophenyl)-N-[4-[(7-methoxy-1,5-naphthyridin-4-yl)oxy]phenyl]-1,6-dimethyl-4-oxopyridine-3-carboxamide] | < 100 | 100 to 300 | < 100 | > 300 |
| CCn1cc(C(=O)Nc2ccc(Oc3ccnc4cc(OC)ccc34)c(F)c2)c(=O)c(-c2ccc(F)cc2)c1C [Compound 107, 1-Ethyl-N-[3-fluoro-4-(7-methoxyquinolin-4-yl)oxyphenyl]-5-(4-fluorophenyl)-6-methyl-4-oxopyridine-3-carboxamide] | < 100 | 100 to 300 | < 100 | > 300 |
| COc1cc2nccc(Oc3ccc(NC(=O)c4cnc(C)n(-c5ccc(F)cc5)c4=O)cc3F)c2nc1OC [Compound 97, N-[4-[(6,7-Dimethoxy-1,5-naphthyridin-4-yl)oxy]-3-fluorophenyl]-1-(4-fluorophenyl)-2-methyl-6-oxopyrimidine-5-carboxamide] | < 100 | < 100 | < 100 | < 100 |
| COc1cnc2c(Oc3ccc(NC(=O)c4cn(C)cc(-c5ccc(F)cc5)c4=O)cc3F)ccnc2c1 [Compound 112, N-[3-Fluoro-4-[(7-methoxy-1,5-naphthyridin-4-yl)oxy]phenyl]-5-(4-fluorophenyl)-1-methyl-4-oxopyridine-3-carboxamide] | < 100 | < 100 | < 100 | > 300 |
| COc1cc2nccc(Oc3ccc(NC(=O)c4c(C)nc(C)n(-c5ccc(F)cc5)c4=O)cc3F)c2nc1OC [Compound 101, N-[4-[(6,7-Dimethoxy-1,5-naphthyridin-4-yl)oxy]-3-fluorophenyl]-1-(4-fluorophenyl)-2,4-dimethyl-6-oxopyrimidine-5-carboxamide] | < 100 | < 100 | < 100 | < 100 |
| COc1ccc2c(Oc3ccc(NC(=O)c4cnc(C)c(-c5ccc(F)cc5)c4O)cc3F)ccnc2c1 [Compound 105, N-[3-Fluoro-4-(7-methoxyquinolin-4-yl)oxyphenyl]-5-(4-fluorophenyl)-4-hydroxy-6-methylpyridine-3-carboxamide] | < 100 | < 100 | < 100 | 100 to 300 |
| COc1cc2nccc(Oc3ccc(NC(=O)c4cn(C(C)C)c(C)c(-c5ccc(F)cc5)c4=O)cc3)c2nc1OC [Compound 115, N-[4-[(6,7-Dimethoxy-1,5-naphthyridin-4-yl)oxy]phenyl]-5-(4-fluorophenyl)-6-methyl-4-oxo-1-propan-2-ylpyridine-3-carboxamide] | < 100 | < 100 | < 100 | < 100 |
| COc1cc2nccc(Oc3ccc(NC(=O)c4c[nH]c(=O)n(-c5ccc(F)cc5)c4=O)cc3F)c2nc1OC [Compound 102, N-[4-[(6,7-Dimethoxy-1,5-naphthyridin-4-yl)oxy]-3-fluorophenyl]-3-(4-fluorophenyl)-2,4-dioxo-1H-pyrimidine-5-carboxamide] | < 100 | < 100 | < 100 | < 100 |
| COc1ccc2nccc(Oc3ccc(NC(=O)c4cn(C)c(C)c(-c5ccc(F)cc5)c4=O)cc3F)c2n1 [Compound 113, N-[3-Fluoro-4-[(6-methoxy-1,5-naphthyridin-4-yl)oxy]phenyl]-5-(4-fluorophenyl)-1,6-dimethyl-4-oxopyridine-3-carboxamide] | < 100 | < 100 | < 100 | > 300 |
| COc1ccc2c(Oc3ccc(NC(=O)c4cnc(C)c(-c5ccc(F)cc5)c4O)cc3)ccnc2c1 [Compound 108, 5-(4-Fluorophenyl)-4-hydroxy-N-[4-(7-methoxyquinolin-4-yl)oxyphenyl]-6-methylpyridine-3-carboxamide] | < 100 | 100 to 300 | < 100 | < 100 |
| COc1cc2nccc(Oc3ccc(NC(=O)c4cn(CCO)cc(-c5ccc(F)cc5)c4=O)cc3F)c2nc1OC [Compound 117, N-[4-[(6,7-Dimethoxy-1,5-naphthyridin-4-yl)oxy]-3-fluorophenyl]-5-(4-fluorophenyl)-1-(2-hydroxyethyl)-4-oxopyridine-3-carboxamide] | < 100 | < 100 | < 100 | < 100 |
| COc1cc2nccc(Oc3ccc(NC(=O)c4cncc(-c5ccc(F)cc5)c4O)cc3)c2nc1OC [Compound 118, N-[4-[(6,7-Dimethoxy-1,5-naphthyridin-4-yl)oxy]phenyl]-5-(4-fluorophenyl)-4-hydroxypyridine-3-carboxamide] | < 100 | < 100 | < 100 | < 100 |
| COc1cc2nccc(Oc3ccc(NC(=O)c4cnc(N(C)C)n(-c5ccc(F)cc5)c4=O)cc3F)c2nc1OC [Compound 100, N-[4-[(6,7-Dimethoxy-1,5-naphthyridin-4-yl)oxy]-3-fluorophenyl]-2-(dimethylamino)-1-(4-fluorophenyl)-6-oxopyrimidine-5-carboxamide] | < 100 | < 100 | < 100 | < 100 |

— patent US12371428B2 (Exelixis, Inc., priority 2019, dated 2025)
